Laboratory results published in patent US6358885B1, “Substituted phenylheterocyclic herbicides” (Mississippi State University, priority 1992, dated 2002).

How the values were obtained:
barley = test: Test B preemergence/postemergence greenhouse plant response rating 0 to 10; assay type: in vivo, Hordeum vulgare; conditions: for Plant response rating, Barley: 0 to 10 scale
Summary of the method: (§1)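 Test chemicals, dissolved in a non-phytotoxic solvent, were applied to soil at planting and, at the same time, over foliage of seedlings at the one to four leaf stage.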

barnyardgrass = test: as above; assay type: in vivo, Echinochloa crus-galli; conditions: for Plant response rating, Barnyardgrass: 0 to 10 scale
Summary of the method: as §1

chickweed [1] = test: as above; assay type: in vivo, Stellaria media; conditions: for Plant response rating, Chickweed: 0 to 10 scale
Summary of the method: as §1

corn = test: as above; assay type: in vivo, Zea mays; conditions: for Plant response rating, Corn: 0 to 10 scale
Summary of the method: as §1

crabgrass [2] = test: as above; assay type: in vivo, Digitaria spp.; conditions: for Plant response rating, Crabgrass: 0 to 10 scale
Summary of the method: as §1

giant foxtail [3] = test: as above; assay type: in vivo, Setaria faberii; conditions: 0 to 10 scale
Summary of the method: as §1

rape = test: as above; assay type: in vivo, Brassica napus; conditions: 0 to 10 scale
Summary of the method: as §1

sorghum = test: as above; assay type: in vivo, Sorghum bicolor; conditions: 0 to 10 scale
Summary of the method: as §1

wheat = test: as above; assay type: in vivo, Triticum aestivum; conditions: 0 to 10 scale
Summary of the method: as §1

bedstraw = test: Test C preemergence/postemergence greenhouse plant response rating 0 to 100; assay type: in vivo, Galium aparine; conditions: POSTEMERGENCE; for Plant response rating, Bedstraw: 0 to 100 scale
Summary of the method: (§2)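 Compounds in non-phytotoxic solvent applied preemergence to sandy loam one day after planting, postemergence at the 1–4 leaf stage, or to ~2.5 cm floodwater over silt loam.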

chickweed [4] = test: as above; assay type: in vivo, Stellaria media; conditions: POSTEMERGENCE; for Plant response rating, Chickweed: 0 to 100 scale
Summary of the method: as §2

crabgrass [5] = test: as above; assay type: in vivo, Digitaria sanguinalis; conditions: POSTEMERGENCE; for Plant response rating, Crabgrass: 0 to 100 scale
Summary of the method: as §2

downy brome = test: as above; assay type: in vivo, Bromus tectorum; conditions: POSTEMERGENCE; for Plant response rating Downy Brome: 0 to 100 scale
Summary of the method: as §2

giant foxtail [6] = test: as above; assay type: in vivo, Setaria faberii; conditions: POSTEMERGENCE; for Plant response rating, Giant foxtail: 0 to 100 scale
Summary of the method: as §2

wild buckwheat = test: as above; assay type: in vivo, Polygonum convolvulus; conditions: POSTEMERGENCE; for Plant response rating, Wild buckwheat: 0 to 100 scale
Summary of the method: as §2

wild oat = test: as above; assay type: in vivo, Avena fatua; conditions: POSTEMERGENCE; for Plant response rating, Wild oat: 0 to 100 scale
Summary of the method: as §2

rice = test: Test C flood test plant response rating 0 to 100; assay type: in vivo, Oryza sativa; conditions: for Plant response rating Rice Japonica: flood test species listed under POSTEMERGENCE, 0 to 100 scale
Summary of the method: as §2

duck salad = test: Test C flood test plant response rating 0 to 100; assay type: in vivo, Heteranthera limosa; conditions: for Plant response rating Duck salad: flood test species listed under POSTEMERGENCE, 0 to 100 scale
Summary of the method: as §2

[7] = POSTEMERGENCE section, flood test, Rate 4 g/ha
[8] = Rate 16 g/ha, under POSTEMERGENCE head (flood test species)

SMILES: CC(C)COc1cc(-c2nn3c(c2Cl)CCCC3)c(F)cc1Cl [Compound 30]
- Plant response rating (0 to 10 scale), Barley (barley; POSTEMERGENCE, Rate 50 g/ha): 5
- Plant response rating, Barley (barley; POSTEMERGENCE, Rate 200 g/ha): 6
- Plant response rating, Barley (barley; PREEMERGENCE, Rate 50 g/ha): 0
- Plant response rating, Barley (barley; Rate 200 g/ha, PREEMERGENCE): 2
- Plant response rating (0 to 10 scale), Barnyardgrass (barnyardgrass; POSTEMERGENCE, Rate 50 g/ha): 6
- Plant response rating, Barnyardgrass (barnyardgrass; POSTEMERGENCE, Rate 200 g/ha): 10
- Plant response rating, Barnyardgrass (barnyardgrass; PREEMERGENCE, Rate 50 g/ha): 2
- Plant response rating, Barnyardgrass (barnyardgrass; Rate 200 g/ha, PREEMERGENCE): 6
- Plant response rating (0 to 10 scale), Chickweed (chickweed [1]; POSTEMERGENCE, Rate 50 g/ha): 5
- Plant response rating, Chickweed (chickweed [1]; POSTEMERGENCE, Rate 200 g/ha): 8
- Plant response rating, Chickweed (chickweed [1]; PREEMERGENCE, Rate 50 g/ha): 0
- Plant response rating, Chickweed (chickweed [1]; Rate 200 g/ha, PREEMERGENCE): 3
- Plant response rating (0 to 10 scale), Corn (corn; POSTEMERGENCE, Rate 50 g/ha): 4
- Plant response rating, Corn (corn; POSTEMERGENCE, Rate 200 g/ha): 4
- Plant response rating, Corn (corn; PREEMERGENCE, Rate 50 g/ha): 0
- Plant response rating, Corn (corn; Rate 200 g/ha, PREEMERGENCE): 1
- Plant response rating (0 to 10 scale), Crabgrass (crabgrass [2]; POSTEMERGENCE, Rate 50 g/ha): 3
- Plant response rating, Crabgrass (crabgrass [2]; POSTEMERGENCE, Rate 200 g/ha): 2
- Plant response rating, Crabgrass (crabgrass [2]; PREEMERGENCE, Rate 50 g/ha): 6
- Plant response rating, Crabgrass (crabgrass [2]; Rate 200 g/ha, PREEMERGENCE): 9
- Plant response rating, Giant foxtail (giant foxtail [3]; POSTEMERGENCE, Rate 50 g/ha): 4
- Plant response rating, Giant foxtail (giant foxtail [3]; PREEMERGENCE, Rate 50 g/ha): 7
- Plant response rating, Giant foxtail (giant foxtail [3]; Rate 200 g/ha, POSTEMERGENCE): 5
- Plant response rating, Giant foxtail (giant foxtail [3]; Rate 200 g/ha, PREEMERGENCE): 8
- Plant response rating, Rape (rape; POSTEMERGENCE, Rate 50 g/ha): 5
- Plant response rating, Rape (rape; PREEMERGENCE, Rate 50 g/ha): 0
- Plant response rating, Rape (rape; Rate 200 g/ha, POSTEMERGENCE): 9
- Plant response rating, Rape (rape; Rate 200 g/ha, PREEMERGENCE): 3
- Plant response rating, Sorghum (sorghum; POSTEMERGENCE, Rate 50 g/ha): 4
- Plant response rating, Sorghum (sorghum; PREEMERGENCE, Rate 50 g/ha): 0
- Plant response rating, Sorghum (sorghum; Rate 200 g/ha, POSTEMERGENCE): 6
- Plant response rating, Sorghum (sorghum; Rate 200 g/ha, PREEMERGENCE): 0
- Plant response rating, Wheat (wheat; POSTEMERGENCE, Rate 50 g/ha): 4
- Plant response rating, Wheat (wheat; PREEMERGENCE, Rate 50 g/ha): 0
- Plant response rating, Wheat (wheat; Rate 200 g/ha, POSTEMERGENCE): 5
- Plant response rating, Wheat (wheat; Rate 200 g/ha, PREEMERGENCE): 2
- Plant response rating, Bedstraw (bedstraw; 62 g/ha): 100
- Plant response rating, Bedstraw (bedstraw; 250 g/ha): 100
- Plant response rating (0 to 100), Bedstraw (bedstraw; Rate 4 g/ha): 50
- Plant response rating (0 to 100), Bedstraw (bedstraw; Rate 16 g/ha): 70
- Plant response rating, Chickweed (chickweed [4]; 62 g/ha): 50
- Plant response rating, Chickweed (chickweed [4]; 250 g/ha): 70
- Plant response rating (0 to 100), Chickweed (chickweed [4]; Rate 4 g/ha): 10
- Plant response rating (0 to 100), Chickweed (chickweed [4]; Rate 16 g/ha): 20
- Plant response rating, Crabgrass (crabgrass [5]; 62 g/ha): 0
- Plant response rating, Crabgrass (crabgrass [5]; 250 g/ha): 20
- Plant response rating (0 to 100), Crabgrass (crabgrass [5]; Rate 4 g/ha): 0
- Plant response rating (0 to 100), Crabgrass (crabgrass [5]; Rate 16 g/ha): 0
- Plant response rating Downy Brome (downy brome; 62 g/ha): 60
- Plant response rating Downy Brome (downy brome; 250 g/ha): 90
- Plant response rating (0 to 100), Downy Brome (downy brome; Rate 4 g/ha): 20
- Plant response rating (0 to 100), Downy Brome (downy brome; Rate 16 g/ha): 40
- Plant response rating, Giant foxtail (giant foxtail [6]; 62 g/ha): 50
- Plant response rating, Giant foxtail (giant foxtail [6]; 250 g/ha): 80
- Plant response rating (0 to 100), Giant foxtail (giant foxtail [6]; Rate 4 g/ha): 0
- Plant response rating (0 to 100), Giant foxtail (giant foxtail [6]; Rate 16 g/ha): 20
- Plant response rating, Wild buckwheat (wild buckwheat; 62 g/ha): 80
- Plant response rating, Wild buckwheat (wild buckwheat; 250 g/ha): 100
- Plant response rating (0 to 100), Wild buckwheat (wild buckwheat; Rate 4 g/ha): 50
- Plant response rating (0 to 100), Wild buckwheat (wild buckwheat; Rate 16 g/ha): 70
- Plant response rating, Wild oat (wild oat; 62 g/ha): 60
- Plant response rating, Wild oat (wild oat; 250 g/ha): 80
- Plant response rating (0 to 100), Wild oat (wild oat; Rate 4 g/ha): 20
- Plant response rating (0 to 100), Wild oat (wild oat; Rate 16 g/ha): 40
- Plant response rating (0 to 100), Rice Japonica (rice; [7]): 35
- Plant response rating (0 to 100), Rice Japonica (rice; [8]): 40
- Plant response rating Rice Japonica (rice; 62 g/ha): 50
- Plant response rating Rice Japonica (rice; 250 g/ha): 60
- Plant response rating (0 to 100), Duck salad (duck salad; [7]): 0
- Plant response rating (0 to 100), Duck salad (duck salad; [8]): 30
- Plant response rating Duck salad (duck salad; 62 g/ha): 40
- Plant response rating Duck salad (duck salad; 250 g/ha): 60
